Results: paper PMC9380671, “Development of spiro-3-indolin-2-one containing compounds of antiproliferative and anti-SARS-CoV-2 properties” (Scientific Reports, 2022)
Like-named read-outs stand apart in the source and are kept apart here.

What was measured:
[1] = system: SARS-CoV-2 (hCoV-19/Egypt/NRC-03/2020); conditions: Vero-E6; cited from earlier work
[2] = MTT cytotoxicity assay (CC50); assay type: cell-based; conditions: African green monkey, VERO-E6 cells
Protocol: The cytotoxic activity of the compounds was tested in VERO-E6 cells by using the 3-(4,5-dimethylthiazol-2-yl)-2,5-diphenyltetrazolium bromide (MTT) method with minor modifications. Briefly, the cells were seeded in 96 well-plates […] at a density of 3 x 10^5 cell/ml and incubated for 24 h at 37 °C in 5% CO2. After 24 h, cells were treated with various concentrated of the tested compounds in triplicates. 24 h later, the supernatant was discarded and cell monolayers were washed with sterile 1x phosphate buffer saline (PBS) 3 times and MTT solution (20 µl of 5 mg/ml) was added to each well and incubated at 37 °C for 4 h followed by medium aspiration. In each well, the formed formazan crystals were dissolved with 200 µl of acidified isopropanol (0.04 M HCl in absolute isopropanol = 0.073 ml HCl in 50 ml isopropanol). Eventually, the absorbance was measured at λmax 570 nm using the Anthos Zenyth 200rt plate reader (Anthos Labtec Instruments, Heerhugowaard, Netherlands). The cytotoxicity of various concentrations compared to the untreated cells was determined using nonlinear regression analysis by plotting log inhibitor versus normalized response.^12^-14

[3] = system: PaCa2 (pancreatic) cancer cell line; test: MTT antiproliferation, PaCa-2; assay type: cell-based, human; conditions: for IC50: Homo sapiens, PaCa-2, 72 h, read-out: IC50 (µM) ± SEM PaCa-2; for SI (selectivity index) PaCa-2: IC50 of RPE1/IC50 of cancer cell line
Protocol: (§1) Antiproliferation properties of the targeted agents were investigated by the standard MTT technique against diverse human cancer cell lines [MCF7 (breast), HCT116 (colon), A431 (skin squamous) and PaCa2 (pancreatic)][67] (Table 1, Supplementary Figs. S48‒S51).
Cells were suspended in DMEM medium for MCF7, A431, PaCa-2 and McCoy’s 5A for HCT116 in addition to 1% antibiotic–antimycotic mixture (10000 μg ml^-1 potassium penicillin, 10000 μg ml^-1 streptomycin sulfate and 25 μg ml^-1 amphotericin B), 10% fetal bovine serum and 1% L-glutamine at 37 °C, under 5% CO2 and 95% humidity. Cells were seeded at concentration of 30000 cells per well in fresh complete growth medium in 96-well tissue culture microtiter plates for 24 h. Media was aspirated, fresh complete medium was added and cells were incubated with different concentrations of the tested compound to give a final concentration of [50, 25, 12.5 and 6.25 μM “in addition to 3.125, 1.56 and 0.78 μM in case of high potent analogues”). 0.5% DMSO was used as negative control. Triplicate wells were prepared for each individual dose. After 72 h of incubation, medium was aspirated, 40 μl MTT salt (2.5 mg ml^-1) was added to each well and incubated for further 4 h at 37 °C. To stop the reaction and dissolve the formed crystals, 150 μl of 10% sodium dodecyl sulfate (SDS) in deionized water was added to each well and incubated overnight at 37 °C. The absorbance was then measured at 570 nm and a reference wavelength of 595 nm.
(§2) Data were collected as mean values for experiments performed in triplicates for each individual dose which had been measured by MTT assay. […] The cell surviving fraction was calculated according to the following equation.
(§3) Surviving fraction = OpticaldensityO.D.oftreatedcellsO.D.ofcontrolcells
(§4) Statistical calculations for determination of the mean and standard error mean values were determined by SPSS 16 software. The observed anti-proliferative properties are presented in Table 1 (Supplementary Figs. S48‒S52).

[4] = system: HCT116 (colon) cancer cell line; test: MTT antiproliferation, HCT116; assay type: cell-based, human; conditions: for IC50: Homo sapiens, HCT-116, 72 h, read-out: IC50 (µM) ± SEM HCT116; for SI (selectivity index) HCT116: IC50 of RPE1/IC50 of cancer cell line
Protocol: as §1
(§5) Cells were seeded at concentration of 30000 cells per well in fresh complete growth medium in 96-well tissue culture microtiter plates for 24 h. […] 0.5% DMSO was used as negative control. Triplicate wells were prepared for each individual dose. After 72 h of incubation, medium was aspirated, 40 μl MTT salt (2.5 mg ml^-1) was added to each well and incubated for further 4 h at 37 °C. To stop the reaction and dissolve the formed crystals, 150 μl of 10% sodium dodecyl sulfate (SDS) in deionized water was added to each well and incubated overnight at 37 °C.
as §2, §3
(§6) Statistical calculations for determination of the mean and standard error mean values were determined by SPSS 16 software.

AChE = AChE (Homo sapiens, UniProt P22303); test: AChE inhibition (DTNB, acetylthiocholine); assay type: biochemical; conditions: for IC50: read-out: AChE (IC50, μM) ± SD
Chain of AChE (P22303 32-614): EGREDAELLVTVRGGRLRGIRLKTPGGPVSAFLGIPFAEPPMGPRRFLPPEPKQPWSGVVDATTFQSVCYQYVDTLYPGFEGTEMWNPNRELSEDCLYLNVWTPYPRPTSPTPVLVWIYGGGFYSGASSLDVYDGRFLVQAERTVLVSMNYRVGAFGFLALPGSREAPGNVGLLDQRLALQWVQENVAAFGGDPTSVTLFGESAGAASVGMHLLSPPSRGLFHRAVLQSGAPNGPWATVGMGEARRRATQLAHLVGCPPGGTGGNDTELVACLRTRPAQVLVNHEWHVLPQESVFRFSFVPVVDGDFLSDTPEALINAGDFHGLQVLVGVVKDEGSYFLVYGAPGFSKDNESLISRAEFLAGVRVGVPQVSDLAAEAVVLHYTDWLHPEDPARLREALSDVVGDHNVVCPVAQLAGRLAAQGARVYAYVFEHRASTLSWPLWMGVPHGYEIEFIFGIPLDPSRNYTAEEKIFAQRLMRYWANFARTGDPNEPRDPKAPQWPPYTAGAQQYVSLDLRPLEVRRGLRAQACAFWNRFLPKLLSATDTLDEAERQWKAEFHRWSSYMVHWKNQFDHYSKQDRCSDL
Protocol: All compounds were dissolved in MeOH.

EGFR = target: T1, EGFR (Homo sapiens, UniProt P00533); assay type: cell-based; conditions: western blot, MCF7, compound at its MTT IC50; for EGFR RQ (relative quantification): control RQ 3.4461
T1 construct: Western blot technique was considered for EGFR and VEGFR-2 properties determination; endogenous in cells; host or cells: MCF7 (breast cancer cell line)
T1 sequence (P00533 25-1210): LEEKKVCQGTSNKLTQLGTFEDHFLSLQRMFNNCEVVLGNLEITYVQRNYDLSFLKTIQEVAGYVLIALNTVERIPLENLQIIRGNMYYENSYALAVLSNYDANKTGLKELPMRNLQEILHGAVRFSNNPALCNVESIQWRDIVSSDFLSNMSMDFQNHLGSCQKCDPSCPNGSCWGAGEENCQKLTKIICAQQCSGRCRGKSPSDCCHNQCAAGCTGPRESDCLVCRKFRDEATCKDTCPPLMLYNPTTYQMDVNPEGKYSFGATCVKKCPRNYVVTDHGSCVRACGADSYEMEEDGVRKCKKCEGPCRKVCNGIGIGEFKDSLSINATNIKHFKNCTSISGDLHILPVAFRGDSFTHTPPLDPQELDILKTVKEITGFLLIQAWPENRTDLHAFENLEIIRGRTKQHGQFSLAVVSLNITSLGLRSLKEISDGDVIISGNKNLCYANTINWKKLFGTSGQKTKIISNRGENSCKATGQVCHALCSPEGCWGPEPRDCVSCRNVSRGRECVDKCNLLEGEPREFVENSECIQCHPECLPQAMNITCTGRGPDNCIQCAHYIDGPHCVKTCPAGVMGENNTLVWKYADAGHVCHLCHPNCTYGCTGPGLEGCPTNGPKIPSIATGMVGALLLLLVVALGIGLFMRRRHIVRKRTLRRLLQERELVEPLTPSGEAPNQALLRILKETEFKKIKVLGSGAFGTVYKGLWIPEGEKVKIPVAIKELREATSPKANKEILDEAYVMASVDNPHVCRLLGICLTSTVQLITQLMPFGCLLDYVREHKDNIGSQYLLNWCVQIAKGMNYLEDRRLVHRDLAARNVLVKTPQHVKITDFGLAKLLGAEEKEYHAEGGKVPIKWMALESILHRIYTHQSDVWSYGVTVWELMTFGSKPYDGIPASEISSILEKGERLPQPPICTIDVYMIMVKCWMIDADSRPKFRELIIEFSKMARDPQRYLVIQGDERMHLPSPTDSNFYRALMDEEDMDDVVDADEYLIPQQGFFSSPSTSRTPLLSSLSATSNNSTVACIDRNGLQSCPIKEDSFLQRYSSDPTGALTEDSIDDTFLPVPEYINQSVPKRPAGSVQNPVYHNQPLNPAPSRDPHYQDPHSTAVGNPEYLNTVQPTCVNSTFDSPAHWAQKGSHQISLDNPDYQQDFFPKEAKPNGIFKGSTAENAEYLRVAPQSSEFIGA
Text: (§7) The western blot technique was applied utilizing the IC50 observed for each respective agent synthesized during MTT assay[85],[86]. Consideration of multi-targeted inhibitory properties investigation is based in the fact that cancer initiation and proliferation sometimes utilizes many receptors or signaling pathways.
(§8) Western blot technique was considered for EGFR and VEGFR-2 properties determination utilizing the IC50 observed of each respective agent synthesized during MTT assay against MCF7 (breast) cancer cell line. All the studies were conducted according to the manufacturer’s instruction.^10,^11

VEGFR-2 = target: T2, VEGFR-2 (Homo sapiens, UniProt P35968); assay type: cell-based; conditions: western blot, MCF7, compound at its MTT IC50; for VEGFR-2 RQ (relative quantification): control RQ 3.2634
T2 construct: Western blot technique was considered for EGFR and VEGFR-2 properties determination; endogenous in cells; host or cells: MCF7 (breast cancer cell line)
T2 sequence (P35968 20-1356): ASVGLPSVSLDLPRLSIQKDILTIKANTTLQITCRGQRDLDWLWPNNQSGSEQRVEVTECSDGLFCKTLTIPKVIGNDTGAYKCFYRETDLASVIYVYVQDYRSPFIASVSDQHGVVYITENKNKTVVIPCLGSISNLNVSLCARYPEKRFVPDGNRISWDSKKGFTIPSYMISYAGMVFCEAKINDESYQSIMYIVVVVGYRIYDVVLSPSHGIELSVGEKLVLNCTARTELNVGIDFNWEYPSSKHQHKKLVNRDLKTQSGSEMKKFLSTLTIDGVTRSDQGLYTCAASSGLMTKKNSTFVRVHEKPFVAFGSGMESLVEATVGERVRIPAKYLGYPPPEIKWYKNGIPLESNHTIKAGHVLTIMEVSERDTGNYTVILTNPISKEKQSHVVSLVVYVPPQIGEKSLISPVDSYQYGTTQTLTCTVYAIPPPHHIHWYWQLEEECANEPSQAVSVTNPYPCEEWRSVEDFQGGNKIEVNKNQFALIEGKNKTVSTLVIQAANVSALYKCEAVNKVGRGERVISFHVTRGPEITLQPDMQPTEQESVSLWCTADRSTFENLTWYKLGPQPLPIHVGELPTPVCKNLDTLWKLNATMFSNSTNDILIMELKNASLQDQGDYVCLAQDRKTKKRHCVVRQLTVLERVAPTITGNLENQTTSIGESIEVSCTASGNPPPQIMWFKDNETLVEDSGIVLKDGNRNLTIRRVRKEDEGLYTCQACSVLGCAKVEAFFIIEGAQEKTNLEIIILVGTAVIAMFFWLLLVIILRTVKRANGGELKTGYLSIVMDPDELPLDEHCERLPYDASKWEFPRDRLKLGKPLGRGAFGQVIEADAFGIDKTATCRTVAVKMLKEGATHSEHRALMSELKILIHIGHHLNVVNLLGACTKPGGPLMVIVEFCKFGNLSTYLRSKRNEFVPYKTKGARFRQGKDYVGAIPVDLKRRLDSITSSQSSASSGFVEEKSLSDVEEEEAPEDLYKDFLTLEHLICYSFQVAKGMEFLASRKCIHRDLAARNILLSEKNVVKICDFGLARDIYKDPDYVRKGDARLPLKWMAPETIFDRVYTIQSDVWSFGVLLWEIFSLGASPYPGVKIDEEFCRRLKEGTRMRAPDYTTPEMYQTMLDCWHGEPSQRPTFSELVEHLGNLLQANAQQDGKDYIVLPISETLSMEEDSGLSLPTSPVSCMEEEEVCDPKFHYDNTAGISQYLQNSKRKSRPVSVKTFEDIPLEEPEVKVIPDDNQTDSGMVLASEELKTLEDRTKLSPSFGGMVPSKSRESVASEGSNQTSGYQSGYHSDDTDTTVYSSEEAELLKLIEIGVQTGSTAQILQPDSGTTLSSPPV
Text: as §7, §8

BChE = BChE (Homo sapiens, UniProt P06276); test: BChE inhibition (DTNB, butyrylthiocholine iodide)
Chain of BChE (P06276 29-602, species assumed): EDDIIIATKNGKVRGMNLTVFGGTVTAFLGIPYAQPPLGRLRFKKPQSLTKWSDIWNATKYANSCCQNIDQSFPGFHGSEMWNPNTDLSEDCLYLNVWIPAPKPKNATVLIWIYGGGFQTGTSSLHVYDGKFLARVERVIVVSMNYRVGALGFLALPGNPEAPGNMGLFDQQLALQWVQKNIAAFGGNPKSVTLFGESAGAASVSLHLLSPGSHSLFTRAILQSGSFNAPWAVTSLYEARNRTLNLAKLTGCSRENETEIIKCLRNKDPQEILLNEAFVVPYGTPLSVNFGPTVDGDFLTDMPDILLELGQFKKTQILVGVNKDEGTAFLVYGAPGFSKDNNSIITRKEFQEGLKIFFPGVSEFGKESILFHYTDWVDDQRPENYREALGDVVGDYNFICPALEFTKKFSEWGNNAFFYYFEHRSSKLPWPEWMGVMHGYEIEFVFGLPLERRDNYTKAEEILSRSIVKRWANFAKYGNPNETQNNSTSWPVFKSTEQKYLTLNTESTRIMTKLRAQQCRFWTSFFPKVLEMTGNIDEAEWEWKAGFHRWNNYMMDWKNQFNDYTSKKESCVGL

[5] = system: SARS-CoV-2 (hCoV-19/Egypt/NRC-03/2020); test: Vero-E6 cell viral infection model, anti-SARS-CoV-2 IC50 (CPE, crystal violet); assay type: cell-based; conditions: for IC50: Severe acute respiratory syndrome coronavirus 2, Vero C1008; for SI = CC50/IC50: Vero-E6, SARS-CoV-2
[6] = system: A431 (skin squamous) cancer cell line; test: MTT antiproliferation, A431; assay type: cell-based, human; conditions: for IC50: Homo sapiens; for SI (selectivity index) A431: IC50 of RPE1/IC50 of cancer cell line
Protocol: as §1, §5, §2, §3, §6

[7] = system: MCF7 (breast) cancer cell line; test: MTT antiproliferation, MCF7; assay type: cell-based, human; conditions: for IC50: Homo sapiens, MCF7, 72 h, read-out: IC50 (µM) ± SEM MCF7; for SI (selectivity index) MCF7: IC50 of RPE1/IC50 of cancer cell line
Protocol: as §1, §5, §2, §3, §6

[8] = system: RPE1 (normal human immortalized retinal pigment epithelial cell line); test: MTT toxicity towards normal cells, RPE1; assay type: cell-based; conditions: RPE-1, read-out: IC50 (µM) ± SEM RPE1
Protocol: The safety of the synthesized agents against non-cancer/normal RPE1 (retinal pigment epithelium) cell line was assessed (Table 1, Supplementary Fig. S52). The SI (selectivity index) for the tested compounds against RPE1 cell line confirms the safety towards non-cancer cells. […] Compound 6d and 6h which are also of high anti-PaCa2 show remarkable SI values (SI = > 3.8, > 3.6, respectively).
The agents synthesized were also tested against RPE1 (normal human immortalized retinal pigment epithelial cell line) cell (in DMEM-F12 medium) to determine the toxicity/selectivity towards normal cells relative to the cancer cell lines utilized.
as §4

VERO-E6 cells = conditions: cited from earlier work
[9] = Vero-E6, 72 h, reduction of virus-induced CPE, read-out: IC50 (µM) SARS-CoV-2
[10] = log of observed IC50 in μM, read-out: Observed log(IC50, μM) (SARS-CoV-2) (converted)
[11] = A-431, 72 h, read-out: IC50 (µM) ± SEM A431
[12] = A-431, read-out: Observed log(IC50, μM) (A431) (converted)

Row | SMILES | IC50 [1] | CC50 at 24 h [2] | IC50 [3] | IC50 [4] | SI (selectivity index) HCT116 [4] | SI = IC50 (AChE)/IC50 (BChE) (AChE) | IC50 (AChE) | EGFR % Inhibition (EGFR) | EGFR RQ (relative quantification) (EGFR) | VEGFR-2 % Inhibition (VEGFR-2) | VEGFR-2 RQ (relative quantification) (VEGFR-2) | IC50 (BChE) | IC50 [5, 9] | IC50 [5, 10] | SI = CC50/IC50 [5] | IC50 [6, 11] | IC50 [6, 12] | SI (selectivity index) A431 [6] | IC50 [7] | SI (selectivity index) MCF7 [7] | also measured
1 | CCN(CC)CCCC(C)Nc1ccnc2cc(Cl)ccc12 (stereo not drawn) [Chloroquine] | 25 µM | – | – | – | – | – | – | – | – | – | – | – | – | – | – | – | – | – | – | – | –
2 | CCS(=O)(=O)N1C/C(=C\c2ccc(Cl)cc2)C(=O)C2(C1)C(c1ccc(Cl)cc1)CN(C)C21C(=O)Nc2ccccc21 (stereo not drawn) [Compound 6k, (E)-5″-(4-Chlorobenzylidene)-4′-(4-chlorophenyl)-1″-(ethylsulfonyl)-1′-methyldispiro[indoline-3,2′-pyrrolidine-3′,3″-piperidine]-2,4″-dione] | – | 55.5 µM | 8.83 ± 0.7 µM | 4.17 ± 0.38 µM | 3.5 | 1.6 | 32.3 ± 4.78 µM | 66.2% | 1.163 | 66.2% | 1.105 | 19.6 ± 2.1 µM | 8.43 µM | 8.43 µM | 6.6 | 2.97 ± 0.29 µM | 2.97 µM | 5.0 | 4.38 ± 0.26 µM | 3.4 | SI (selectivity index) PaCa-2 [3]: 1.7; IC50 [8]: 14.8 ± 0.99 µM
3 | COc1ccc(/C=C2\CN(S(C)(=O)=O)CC3(C2=O)C(c2ccc(OC)c(OC)c2)CN(C)C32C(=O)Nc3ccccc32)cc1OC (stereo not drawn) [Compound 6n, (E)-5″-(3,4-Dimethoxybenzylidene)-4′-(3,4-dimethoxyphenyl)-1′-methyl-1″-(methylsulfonyl)dispiro[indoline-3,2′-pyrrolidine-3′,3″-piperidine]-2,4″-dione] | – | 621 µM | 32.8 ± 1.21 µM | 15.4 ± 0.52 µM | > 3.2 | 0.9 | 5.4 ± 0.94 µM | 69.6% | 1.047 | 64.2% | 1.167 | 6.33 ± 0.85 µM | 35.9 µM | 35.9 µM | 17.3 | 34.9 ± 1.36 µM | 34.9 µM | > 1.4 | 40.2 ± 1.1 µM | > 1.2 | SI (selectivity index) PaCa-2 [3]: > 1.5; IC50 [8]: > 50 µM
4 | COc1ccc(/C=C2\CN(S(C)(=O)=O)CC3(C2=O)C(c2ccc(OC)c(OC)c2)CN(C)C32C(=O)Nc3ccc(Cl)cc32)cc1OC (stereo not drawn) [Compound 6o, (E)-5-Chloro-5″-(3,4-dimethoxybenzylidene)-4′-(3,4-dimethoxyphenyl)-1′-methyl-1″-(methylsulfonyl)dispiro[indoline-3,2′-pyrrolidine-3′,3″-piperidine]-2,4″-dione] | – | 196 µM | > 50 µM | 28.5 ± 0.75 µM | > 1.8 | 1.1 | 27 ± 6.7 µM | 65.9% | 1.175 | 61.8% | 1.2473 | 24.9 ± 4.6 µM | 88.2 µM | 88.2 µM | 2.2 | 45.4 ± 1.84 µM | 45.4 µM | > 1.1 | 48.9 ± 1.84 µM | > 1.0 | IC50 [8]: > 50 µM
5 | NC(=O)c1nc(F)c[nH]c1=O [Favipiravir] | 1380 µM | – | – | – | – | – | – | – | – | – | – | – | – | – | – | – | – | – | – | – | CC50 (VERO-E6 cells): 5260 µM; SI = CC50/IC50 [1]: 3.8
6 | CCN(CCO)CCCC(C)Nc1ccnc2cc(Cl)ccc12 (stereo not drawn) [Hydroxychloroquine] | 36.9 µM | – | – | – | – | – | – | – | – | – | – | – | – | – | – | – | – | – | – | – | CC50 (VERO-E6 cells): 356 µM; SI = CC50/IC50 [1]: 9.7
